The record followed here is patent publication US20070197586A1, “8-Hydroxy-5-[(-Hydroxy-2-[[ (1R)-2-(4-Methoxyphenyl)-1-Methylethyl] Amino][Ethyl]-2(1H)-Quinolinone Monohydrochloride In Crystalline Form And The Process For Its Preparation” (Chiesi Farmaceutici S.p.A., priority 2004, published 2007).

This data set can be described thus: Crystalline degree by in-house DSC method (heat of fusion vs 100% crystalline reference standard). Type of data set: physicochemical. To be noted: samples as such and after grinding or micronization; DSC scan rate 130° C./min; maintained after grinding and micronization. As to the method:
The crystalline degree of the compound has been determined according to a differential scanning calorimetry (DSC) method developed in-house based on the measurement of the heat of fusion.
Said method uses a scan rate of 130° C./min to evaluate the percentage of crystalline compound in a sample by determining the ratio between the ΔH (heat of fusion) of the sample with respect to the ΔH of a 100% crystalline reference standard, determined in the same range of temperature and in the same experimental conditions. The 100% crystalline reference standard was prepared by suspending the compound in ethanol, then filtering to eliminate the residual amorphous compound dissolved in ethanol, and drying.
The method was applied to samples of the compound of the Example as such, and after grinding or micronization.

Regarding `COc1ccc(C[C@@H](C)NC[C@H](O)c2ccc(O)c3[nH]c(=O)ccc23)cc1.Cl` [compound of the Example, 8-hydroxy-5-[(1R)-1-hydroxy-2-[[(1R)-2-(4-methoxyphenyl)-1-methylethyl]amino]ethyl]-2(1H)-quinolinone monohydrochloride], the cristallinity degree entry is recorded as “higher than 90%”.
